“And” between values parts separate entries of the source, which are not always exact repeats. Equal entries are not always repeated.
How the values were obtained:
FGF1 = biological target: T1, FGF1 (Homo sapiens, UniProt P05230); test: Fluorescence spectroscopy binding constant of FGF1 and suramin derivatives; conditions: fluorescence quenching, 5 µM FGF1, non-linear regression with Stern–Volmer equation, pH 6.5
T1 construct: made in house
Description: The binding constant Kd was calculated for FGF1 and the five derivatives in a buffer containing 10% D2O, 50 mM AMS, 20 mM phosphate buffer, and 50 mM NaCl at pH 6.5 using an F-2500 Hitachi fluorescence spectrophotometer.
[…] has tremendous significance for biochemical application because it provides valuable knowledge about the probability of quencher activity. The anti-mitogenic activity of the five compounds was achieved by the same mechanism in which suramin inhibits the mitogenic activity of FGF1. A non-linear regression curve was plotted for the relative intensities of activity versus drug concentration using the Stern–Volmer equation (Eq. 1). log(F0−F)/F=logK+nlog[Q], (1)
where F0 represents the fluorescence intensity in the absence of the compounds, and F represents the fluorescence intensity in the presence of the [Q] concentration of the compounds.
Increasing concentrations of these five suramin derivatives were added to a solution containing 5 µM FGF1. A reduction in the fluorescence intensity was reported for all five suramin derivatives. The Stern–Volmer equation was used to calculate the binding constant between FGF1 and compounds 14, 15, 17, 18, and 21 for relative intensities versus the total concentration in a non-linear regression curve.

[1] = WST-1 assay, cytotoxicity in tumorigenic cells; assay type: cell-based, human; conditions: human; MCF-7 cells, 48 h, SigmaPlot; read-out: estimated IC50 (cytotoxicity)
Description: (§1) The water-soluble tetrazolium salt (WST-1) assay was performed to assess the effects of the compounds on cell proliferation and cytotoxicity. DMEM/F12 containing 10% FBS was used for the cell culture, and incubation was performed in 5% CO2 till the logarithmic growth phase was achieved. On the day before the experiment, the cells were trypsinized and seeded in a 96-well plate at a density of 5000 cells/well. For the FGF1-stimulated cell proliferation assay, the cells were then incubated for 24 h in a serum-free medium containing 0.1% bovine serum albumin (BSA). Serum-starved cells with or without a specified concentration of suramin, 14, 15, 17, 18, 21, and FGFRD2 were stimulated with 100 nM of FGF1 again for 48 h. For the purpose of the cytotoxicity assay, the cells were treated with an increased concentration of suramin and compounds 14, 17, 15, 18, and 21 (Figure 6) for 48 h. Also, 1/10 of the volume of WST-1 cell reagent was inserted in every well and maintained at 37°C for another 4 h before harvesting. There was gentle agitation of the medium in the cell culture plate for 10 min using a shaker. A Synergy 2 microplate reader (BioTek Instruments, Inc., VT, United States) was used to measure the absorbance at 450 nm. The relative absorbance was compared with the control treatment to determine the relative cell number.
(§2) […] […] The reason for the higher cytotoxicity was the presence of methyl groups on the suramin structure ([Martello et al., 2001]).
(§3) Suramin-induced neuropathy may depend on the effects on calcium (Ca^2+) homeostasis as a potential pathological mechanism, and the full or partial positive charge of the element when directly attached to the ring at each of the sulphonic groups (HSO3). These interactions exert a moderate to strong electron-withdrawing inductive effect, which may be responsible for the observed suramin cytotoxicity ([Prasetyaningrum et al., 2018]; [Von Der Ahe et al., 2018]). The cytotoxicity of the synthesized analogs was lower as there were methyl groups and no sulfonic acid groups attached to the suramin backbone. The IC50 values of the synthesized compounds in MCF-7 breast cancer cells were analyzed using SigmaPlot software.

MCF-7 cells [2] = test: WST-1 assay, cytotoxicity in tumorigenic cells; assay type: cell-based, human; conditions: for Mean (Blank 450) / Fold (mean) / Blank 450 / Fold: S8; for Fold (mean): relative to control; for Blank 450: single replicate absorbance; for Fold: single replicate relative to control; for cytotoxicity compared with suramin: MCF-7 cells, 1-100 µM, 48 h, especially at concentrations higher than 10 µM
Description: as §1, §2, §3

[3] = WST-1 assay, cytotoxicity in normal breast epithelial cell line (non-tumorigenic); assay type: cell-based; conditions: human; non-tumorigenic MCF-10A cells; read-out: estimated IC50 (cytotoxicity)
Description: as §1
In order to gain some insight about the selectivity of the compounds between tumorigenic and non-tumorigenic cells, the cytotoxicity was also being evaluated against normal breast cell lines by examining the cytotoxicity of suramin and its derivatives, compounds 15, 18, and 21, in a normal breast epithelial cell line (non-tumorigenic), MCF-10A. […] Compared to their cytotoxicity in tumorigenic MCF-7 cells (Figure 6), the estimated IC50 values in MCF-10A were higher than those in MCF-7 cells. […] However, the estimated IC50 value of suramin and its derivatives in both non-tumorigenic MCF-10A and tumorigenic MCF-7 cells were over 100 μM. The effective concentrations of suramin and its derivatives to attenuate FGF1-stimulated cell proliferation in MCF-7 cells were around 1 μM (Figure 5), which is non-toxic concentration to both MCF-7 cells and MCF-10A cells. […] Therefore, in addition to the specificity of each drug, the selectivity of suramin and its derivatives to disrupt the FGF1/FGFR-mediated breast cancer growth might rely on the overexpression or amplification of FGFR2 in breast cancer cells, but not in normal cells, and the secreted FGF1 ligand by autocrine or paracrine effects from cancer cells or their surrounding stroma cells or adipocytes (tumor microenvironment). The statistical data for the cytotoxicity are shown in Supplementary Figure S8.

[4] = Exposure stability study by 1H NMR in DMSO-d6 and D2O; assay type: physicochemical; conditions: 0.017 mol/L in DMSO-d6 and D2O, 11 days
Description: The stability of the compounds was verified in both aqueous and DMSO solutions. In aqueous medium, the stability of the suramin derivatives 15 and 18 were considered to verify the stability. A control experiment consisting of a DMSO-d 6 (0.017 mol/L) solution of 15 and a D2O solution of 15 (0.017 mol/L) was maintained on the laboratory bench. All experiments were performed in NMR tubes containing 0.017 mol/L solutions of compounds 15 and 18 in DMSO-d 6 and D2O, respectively. NMR spectra were recorded over 11 days (initially daily for 1 week).
10 mg of the newly synthesized compound was diluted in 500 µL DMSO-d 6 under investigation in a 5-mm NMR tube. The procedure was maintained as it is for 11 days in the solution. The ^1H NMR spectrum was recorded daily for 4 days up to 11 days.
10 mg of the novel compound was diluted in 500 µL D2O under investigation in a 5-mm NMR tube. The procedure was maintained as it is for 11 days in the solution. The ^1H NMR spectrum was recorded daily for 4 days up to 11 days.

MCF-7 cells [5] = test: WST-1 assay, FGF1-stimulated cell proliferation; assay type: cell-based, human; conditions: serum-starved MCF-7, 100 nM FGF1, 100 nM, 500 nM and 1 µM of test substance, 48 h
Description: as §1
Cell proliferation was measured using the WST-1 assay. […]

T1 sequence (P05230 whole entry): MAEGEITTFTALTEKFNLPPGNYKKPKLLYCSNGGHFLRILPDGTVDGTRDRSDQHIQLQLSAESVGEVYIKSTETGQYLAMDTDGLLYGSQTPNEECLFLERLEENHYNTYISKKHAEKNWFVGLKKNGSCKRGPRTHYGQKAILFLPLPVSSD

O=C(Nc1ccc(C(=O)Nc2cc(S(=O)(=O)[O-])cc3cc(S(=O)(=O)[O-])cc(S(=O)(=O)[O-])c23)cc1)Nc1ccc(C(=O)Nc2cc(S(=O)(=O)[O-])cc3cc(S(=O)(=O)[O-])cc(S(=O)(=O)[O-])c23)cc1.[Na+].[Na+].[Na+].[Na+].[Na+].[Na+] [Compound 15, Sodium 8,8'-((4,4'-(carbonylbis (azanediyl))bis (benzoyl))bis (azanediyl))bis (naphthalene-1,3,6-trisulfonate)]
Kd (FGF1): 20.9 µM | IC50 at 48 h [1]: > 100 µM | Mean (Blank 450) (MCF-7 cells [2]; 1 uM): 1.163 | Fold (mean) (MCF-7 cells [2]; 1 uM): 1.00 | Blank 450 (MCF-7 cells [2]; 1 uM): 1.143 and 1.162 and 1.195 and 1.152 | Fold (MCF-7 cells [2]; 1 uM): 0.981 and 0.997 and 1.026 and 0.989 | Mean (Blank 450) (MCF-7 cells [2]; 5 uM): 1.146 | Fold (mean) (MCF-7 cells [2]; 5 uM): 0.98 | Blank 450 (MCF-7 cells [2]; 5 uM): 1.161 and 1.116 and 1.206 and 1.101 | Fold (MCF-7 cells [2]; 5 uM): 0.996 and 0.958 and 1.035 and 0.945 | Mean (Blank 450) (MCF-7 cells [2]; 10 uM): 1.122 | Fold (mean) (MCF-7 cells [2]; 10 uM): 0.96 | Blank 450 (MCF-7 cells [2]; 10 uM): 1.151 and 1.117 and 1.059 and 1.162 | Fold (MCF-7 cells [2]; 10 uM): 0.988 and 0.959 and 0.909 and 0.997 | Mean (Blank 450) (MCF-7 cells [2]; 50 uM): 0.982 | Fold (mean) (MCF-7 cells [2]; 50 uM): 0.84 | Blank 450 (MCF-7 cells [2]; 50 uM): 0.998 and 1.012 and 0.955 and 0.961 | Fold (MCF-7 cells [2]; 50 uM): 0.856 and 0.868 and 0.820 and 0.825 | Mean (Blank 450) (MCF-7 cells [2]; 100 uM): 0.880 | Fold (mean) (MCF-7 cells [2]; 100 uM): 0.75 | Blank 450 (MCF-7 cells [2]; 100 uM): 0.927 and 0.887 and 0.833 and 0.872 | Fold (MCF-7 cells [2]; 100 uM): 0.796 and 0.761 and 0.715 and 0.748 | cytotoxicity compared with suramin (MCF-7 cells [2]): less toxic | IC50 at 48 h [3]: 221 ± 3.57 µM | stability in solution (1H NMR) [4]: remarkably stable

O=C(Nc1ccc(C(=O)Nc2ccc(C(=O)Nc3cccc4cc(S(=O)(=O)O)ccc34)cc2)cc1)Nc1ccc(C(=O)Nc2ccc(C(=O)Nc3cccc4cc(S(=O)(=O)O)ccc34)cc2)cc1 [Compound 17, Sodium 5,5'-((4,4'-((4,4'-(carbonylbis (azanediyl))bis (benzoyl))bis (azanediyl))bis (benzoyl))bis(azanediyl)) bis (naphthalene-2-sulfonate)]
Kd (FGF1): 10.1 µM | effect on FGF1-stimulated cell proliferation (MCF-7 cells [5]): more potent inhibitory effects | IC50 at 48 h [1]: > 100 µM | Mean (Blank 450) (MCF-7 cells [2]; 0.5 uM): 0.233 | Fold (mean) (MCF-7 cells [2]; 0.5 uM): 1.04 | Blank 450 (MCF-7 cells [2]; 0.5 uM): 0.241 and 0.231 and 0.216 and 0.243 | Fold (MCF-7 cells [2]; 0.5 uM): 1.082 and 1.037 and 0.970 and 1.091 | Mean (Blank 450) (MCF-7 cells [2]; 1 uM): 0.226 | Fold (mean) (MCF-7 cells [2]; 1 uM): 1.01 | Blank 450 (MCF-7 cells [2]; 1 uM): 0.235 and 0.232 and 0.211 and 0.225 | Fold (MCF-7 cells [2]; 1 uM): 1.055 and 1.042 and 0.947 and 1.010 | Mean (Blank 450) (MCF-7 cells [2]; 5 uM): 0.222 | Fold (mean) (MCF-7 cells [2]; 5 uM): 1.00 | Blank 450 (MCF-7 cells [2]; 5 uM): 0.201 and 0.215 and 0.233 and 0.239 | Fold (MCF-7 cells [2]; 5 uM): 0.902 and 0.965 and 1.046 and 1.073 | Mean (Blank 450) (MCF-7 cells [2]; 10 uM): 0.220 | Fold (mean) (MCF-7 cells [2]; 10 uM): 0.99 | Blank 450 (MCF-7 cells [2]; 10 uM): 0.218 and 0.227 and 0.225 and 0.209 | Fold (MCF-7 cells [2]; 10 uM): 0.979 and 1.019 and 1.010 and 0.938 | Mean (Blank 450) (MCF-7 cells [2]; 100 uM): 0.208 | Fold (mean) (MCF-7 cells [2]; 100 uM): 0.93 | Blank 450 (MCF-7 cells [2]; 100 uM): 0.197 and 0.209 and 0.218 and 0.206 | Fold (MCF-7 cells [2]; 100 uM): 0.884 and 0.938 and 0.979 and 0.925 | cytotoxicity compared with suramin (MCF-7 cells [2]): less toxic

From article PMC8763243, “Synthesis of Novel Suramin Analogs With Anti-Proliferative Activity via FGF1 and FGFRD2 Blockade” (Frontiers in Chemistry, 2022)
